Test results reported in patent US8710065B2, “Tricyclic inhibitors of kinases” (AbbVie Inc., priority 2011, dated 2014).
pKi: −log10 of the molar value.

Biological target: T1, GST-tagged-Wee1 kinase (Homo sapiens, UniProt P30291)
T1 construct: purchased Carnabio (Carna Biosciences) 05-177
Experiment: Wee1 time-resolved fluorescence equilibrium binding assay (displacement of Oregon Green-labeled ATP-competitive kinase probe)
Conditions: read-out: Wee-1 inhibition (Ki)
Procedure, shortened: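 Ki values derive from competitive displacement, under equilibrium, of a fast-reversible ATP-site Oregon Green kinase probe from GST-tagged Wee1, detected by time-resolved fluorescence.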

T1 sequence (P30291 whole entry): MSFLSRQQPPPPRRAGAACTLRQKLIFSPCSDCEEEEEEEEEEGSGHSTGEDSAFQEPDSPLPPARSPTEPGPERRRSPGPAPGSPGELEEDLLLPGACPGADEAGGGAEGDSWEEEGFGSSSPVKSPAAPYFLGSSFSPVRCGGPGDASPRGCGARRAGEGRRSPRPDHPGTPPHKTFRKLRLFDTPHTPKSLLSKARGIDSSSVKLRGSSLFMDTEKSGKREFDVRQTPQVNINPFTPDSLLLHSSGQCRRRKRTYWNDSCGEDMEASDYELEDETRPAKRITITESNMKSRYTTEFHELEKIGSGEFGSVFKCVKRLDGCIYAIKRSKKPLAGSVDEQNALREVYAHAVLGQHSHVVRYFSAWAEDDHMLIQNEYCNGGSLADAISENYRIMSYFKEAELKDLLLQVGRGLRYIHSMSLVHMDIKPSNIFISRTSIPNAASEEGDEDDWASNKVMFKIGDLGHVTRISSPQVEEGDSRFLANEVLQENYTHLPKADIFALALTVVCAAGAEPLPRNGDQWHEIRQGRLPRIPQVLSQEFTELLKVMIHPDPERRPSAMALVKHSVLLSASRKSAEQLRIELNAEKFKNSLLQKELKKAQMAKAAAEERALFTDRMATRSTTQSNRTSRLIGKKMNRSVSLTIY

For `CN(C)CCN1CCc2cc(Nc3ncc4c(=O)n(-c5ccccc5Cl)c5nccn5c4n3)ccc21` [Example 93, 6-(2-chlorophenyl)-2-({1-[2-(dimethylamino)ethyl]-2,3-dihydro-1H-indol-5-yl}amino)imidazo[1,2-a]pyrimido[5,4-e]pyrimidin-5(6H)-one], the pKi was greater than 8.00.
`O=c1c2cnc(Nc3ccc4c(c3)CC(N3CCCC3)C4)nc2n2ccnc2n1-c1c(Cl)cccc1Cl` (stereo not shown) [Example 305, 6-(2,6-dichlorophenyl)-2-{[2-(pyrrolidin-1-yl)-2,3-dihydro-1H-inden-5-yl]amino}imidazo[1,2-a]pyrimido[5,4-e]pyrimidin-5(6H)-one] gave a pKi greater than 8.00.
In the case of `CN1CCN(c2ccc(Nc3ncc4c(=O)n(-c5ccccc5)c5nccn5c4n3)cc2)CC1` [Example 39, 2-{[4-(4-methylpiperazin-1-yl)phenyl]amino}-6-phenylimidazo[1,2-a]pyrimido[5,4-e]pyrimidin-5(6H)-one], the pKi was 7.00 to 8.00.
With `CN1CCN(c2cccc(Nc3ncc4c(=O)n(-c5ccccc5Cl)c5nccn5c4n3)c2)CC1` [Example 6, 6-(2-chlorophenyl)-2-{[3-(4-methylpiperazin-1-yl)phenyl]amino}imidazo[1,2-a]pyrimido[5,4-e]pyrimidin-5(6H)-one] the pKi was greater than 8.00.
Compound `Cc1ccc2nc(CCc3ccc(Nc4ncc5c(=O)n(-c6ccccc6Cl)c6nccn6c5n4)cc3)ccc2c1` [Example 361, 6-(2-chlorophenyl)-2-({4-[2-(6-methylquinolin-2-yl)ethyl]phenyl}amino)imidazo[1,2-a]pyrimido[5,4-e]pyrimidin-5(6H)-one] has a pKi of 7.00 to 8.00.
Compound `O=c1c2cnc(Nc3ccc(N4CCC[C@H]4CN4CCCC4)cc3)nc2n2ccnc2n1-c1ccccc1Cl` [Example 249, 6-(2-chlorophenyl)-2-({4-[(2S)-2-(pyrrolidin-1-ylmethyl)pyrrolidin-1-yl]phenyl}amino)imidazo[1,2-a]pyrimido[5,4-e]pyrimidin-5(6H)-one] has a pKi greater than 8.00.
With `CN1Cc2cc(Nc3ncc4c(=O)n(-c5c(Cl)cc(F)cc5Cl)c5nccn5c4n3)ccc2C(C)(C)C1` [Example 212, 6-(2,6-dichloro-4-fluorophenyl)-2-[(2,4,4-trimethyl-1,2,3,4-tetrahydroisoquinolin-7-yl)amino]imidazo[1,2-a]pyrimido[5,4-e]pyrimidin-5(6H)-one] the pKi was greater than 8.00.
For `O=c1cn[nH]c2ccc(Nc3ncc4c(=O)n(-c5c(Cl)cccc5Cl)c5nccn5c4n3)cc12` [Example 213, 6-(2,6-dichlorophenyl)-2-[(4-oxo-1,4-dihydrocinnolin-6-yl)amino]imidazo[1,2-a]pyrimido[5,4-e]pyrimidin-5(6H)-one], the pKi was greater than 8.00.
Compound `Cc1cc(OCCCN2CCN(C)CC2)ccc1Nc1ncc2c(=O)n(-c3ccccc3Cl)c3nccn3c2n1` [Example 77, 6-(2-chlorophenyl)-2-({2-methyl-4-[3-(4-methylpiperazin-1-yl)propoxy]phenyl}amino)imidazo[1,2-a]pyrimido[5,4-e]pyrimidin-5(6H)-one] has a pKi of less than 7.00.
Work on `CN1CCC(c2ccc(Nc3ncc4c(=O)n(-c5c(Cl)cccc5Cl)c5nccn5c4n3)cc2)CC1` [Example 287, 6-(2,6-dichlorophenyl)-2-{[4-(1-methylpiperidin-4-yl)phenyl]amino}imidazo[1,2-a]pyrimido[5,4-e]pyrimidin-5(6H)-one] yielded a pKi greater than 8.00.
For `CCCOc1ccc(CN2Cc3cc(Nc4ncc5c(=O)n(-c6ccccc6Cl)c6nccn6c5n4)ccc3C(C)(C)C2)cc1` [Example 357, 6-(2-chlorophenyl)-2-{[4,4-dimethyl-2-(4-propoxybenzyl)-1,2,3,4-tetrahydroisoquinolin-7-yl]amino}imidazo[1,2-a]pyrimido[5,4-e]pyrimidin-5(6H)-one], the pKi was 7.00 to 8.00.
`CC(C)(C)C(=O)N1Cc2cc(Nc3ncc4c(=O)n(-c5c(F)cccc5Cl)c5nccn5c4n3)ccc2C2(CC2)C1` [Example 266, 6-(2-chloro-6-fluorophenyl)-2-{[2′-(2,2-dimethylpropanoyl)-2′,3′-dihydro-1′H-spiro[cyclopropane-1,4′-isoquinolin]-7′-yl]amino}imidazo[1,2-a]pyrimido[5,4-e]pyrimidin-5(6H)-one] showed a pKi greater than 8.00.
`O=c1c2cnc(Nc3ccc(CC4CCNCC4)cc3)nc2n2ccnc2n1-c1ccccc1Cl` [Example 291, 6-(2-chlorophenyl)-2-{[4-(piperidin-4-ylmethyl)phenyl]amino}imidazo[1,2-a]pyrimido[5,4-e]pyrimidin-5(6H)-one] showed a pKi greater than 8.00.
Compound `O=c1c2cnc(Nc3ccncc3)nc2n2ccnc2n1-c1ccccc1Cl` [Example 3, 6-(2-chlorophenyl)-2-(pyridin-4-ylamino)imidazo[1,2-a]pyrimido[5,4-e]pyrimidin-5(6H)-one] has a pKi of less than 7.00.
For `O=c1c2cnc(Nc3ccc(N4CC5(CNC5)C4)cc3)nc2n2ccnc2n1-c1c(Cl)cccc1Cl` [Example 304, 2-{[4-(2,6-diazaspiro[3.3]hept-2-yl)phenyl]amino}-6-(2,6-dichlorophenyl)imidazo[1,2-a]pyrimido[5,4-e]pyrimidin-5(6H)-one], the pKi was greater than 8.00.
`CN1CCN(Cc2ccc(Nc3ncc4c(=O)n(-c5c(Cl)cccc5Cl)c5nccn5c4n3)cc2)CC1` [Example 127, 6-(2,6-dichlorophenyl)-2-({4-[(4-methylpiperazin-1-yl)methyl]phenyl}amino)imidazo[1,2-a]pyrimido[5,4-e]pyrimidin-5(6H)-one] was tested, and the pKi was greater than 8.00.
`CNc1nc(C)c(-c2ccc(Nc3ncc4c(=O)n(-c5c(Cl)cccc5Cl)c5nccn5c4n3)cc2)s1` [Example 197, 6-(2,6-dichlorophenyl)-2-({4-[4-methyl-2-(methylamino)-1,3-thiazol-5-yl]phenyl}amino)imidazo[1,2-a]pyrimido[5,4-e]pyrimidin-5(6H)-one] showed a pKi greater than 8.00.
In the case of `O=c1c2cnc(Nc3ccc(N[C@H]4CN5CCC4CC5)cc3)nc2n2ccnc2n1-c1ccccc1Cl` [Example 245, 2-({4-[(3R)-1-azabicyclo[2.2.2]oct-3-ylamino]phenyl}amino)-6-(2-chlorophenyl)imidazo[1,2-a]pyrimido[5,4-e]pyrimidin-5(6H)-one], the pKi was greater than 8.00.
`COc1cc(Nc2ncc3c(=O)n(-c4c(Cl)cccc4Cl)c4nccn4c3n2)ccc1N1CCN(C)CC1` [Example 148, 6-(2,6-dichlorophenyl)-2-{[3-methoxy-4-(4-methylpiperazin-1-yl)phenyl]amino}imidazo[1,2-a]pyrimido[5,4-e]pyrimidin-5(6H)-one] gave a pKi greater than 8.00.
`CN1CCc2ccc(Nc3ncc4c(=O)n(-c5ccccc5Cl)c5nccn5c4n3)cc2C1` [Example 34, 6-(2-chlorophenyl)-2-[(2-methyl-1,2,3,4-tetrahydroisoquinolin-7-yl)amino]imidazo[1,2-a]pyrimido[5,4-e]pyrimidin-5(6H)-one] showed a pKi greater than 8.00.
`CN1CCN(c2ccc(Nc3ncc4c(=O)n(-c5ccccc5Cl)c5nnnn5c4n3)cc2)CC1` [Example 28, 4-(2-chlorophenyl)-8-{[4-(4-methylpiperazin-1-yl)phenyl]amino}pyrimido[5,4-e]tetrazolo[1,5-a]pyrimidin-5(4H)-one] was tested, and the pKi was 7.00 to 8.00.
`CN1C(C)(C)c2ccc(Nc3ncc4c(=O)n(-c5c(Cl)cccc5Cl)c5nccn5c4n3)cc2C1(C)C` [Example 177, 6-(2,6-dichlorophenyl)-2-[(1,1,2,3,3-pentamethyl-2,3-dihydro-1H-isoindol-5-yl)amino]imidazo[1,2-a]pyrimido[5,4-e]pyrimidin-5(6H)-one] was tested, and the pKi was greater than 8.00.
With `NC(=O)C1CCCN(c2ccc(Nc3ncc4c(=O)n(-c5ccccc5Cl)c5nccn5c4n3)cc2)C1` (stereo not shown) [Example 272, 1-(4-{[6-(2-chlorophenyl)-5-oxo-5,6-dihydroimidazo[1,2-a]pyrimido[5,4-e]pyrimidin-2-yl]amino}phenyl)piperidine-3-carboxamide] the pKi was 7.00 to 8.00.
`O=c1c2cnc(Nc3ccc(NCCN4CCOCC4)cc3)nc2n2ccnc2n1-c1ccccc1Cl` [Example 248, 6-(2-chlorophenyl)-2-[(4-{[2-(morpholin-4-yl)ethyl]amino}phenyl)amino]imidazo[1,2-a]pyrimido[5,4-e]pyrimidin-5(6H)-one] was tested, and the pKi was greater than 8.00.
Work on `Cc1ccc(Nc2ncc3c(=O)n(-c4ccccc4Cl)c4nccn4c3n2)cc1` [Example 69, 6-(2-chlorophenyl)-2-[(4-methylphenyl)amino]imidazo[1,2-a]pyrimido[5,4-e]pyrimidin-5(6H)-one] yielded a pKi of 7.00 to 8.00.
`CN1CCC2(CC1)CCN(c1ccc(Nc3ncc4c(=O)n(-c5c(Cl)cccc5Cl)c5nccn5c4n3)cc1)CC2` [Example 323, 6-(2,6-dichlorophenyl)-2-{[4-(9-methyl-3,9-diazaspiro[5.5]undec-3-yl)phenyl]amino}imidazo[1,2-a]pyrimido[5,4-e]pyrimidin-5(6H)-one] showed a pKi greater than 8.00.
`CN1CCCC1CCNc1ccc(Nc2ncc3c(=O)n(-c4ccccc4Cl)c4nccn4c3n2)cc1` (stereo not shown) [Example 192, 6-(2-chlorophenyl)-2-[(4-{[2-(1-methylpyrrolidin-2-yl)ethyl]amino}phenyl)amino]imidazo[1,2-a]pyrimido[5,4-e]pyrimidin-5(6H)-one] was tested, and the pKi was 7.00 to 8.00.
`O=C(NC1CCCCC1)c1ccc(Nc2ncc3c(=O)n(-c4ccccc4Cl)c4nccn4c3n2)cc1` [Example 41, 4-{[6-(2-chlorophenyl)-5-oxo-5,6-dihydroimidazo[1,2-a]pyrimido[5,4-e]pyrimidin-2-yl]amino}-N-cyclohexylbenzamide] was tested, and the pKi was 7.00 to 8.00.
With `O=C(O[C@@H]1CCCN2CCCCC12)c1ccc(Nc2ncc3c(=O)n(-c4c(Cl)cccc4Cl)c4nccn4c3n2)cc1` (stereo partly drawn) [Example 200, (1R)-octahydro-2H-quinolizin-1-yl 4-{[6-(2,6-dichlorophenyl)-5-oxo-5,6-dihydroimidazo[1,2-a]pyrimido[5,4-e]pyrimidin-2-yl]amino}benzoate] the pKi was greater than 8.00.
In the case of `O=c1c2cnc(Nc3ccc(NCCCn4ccnc4)cc3)nc2n2ccnc2n1-c1ccccc1Cl` [Example 269, 6-(2-chlorophenyl)-2-[(4-{[3-(1H-imidazol-1-yl)propyl]amino}phenyl)amino]imidazo[1,2-a]pyrimido[5,4-e]pyrimidin-5(6H)-one], the pKi was greater than 8.00.
With `O=c1c2cnc(Nc3ccc(C4CCCCN4)cc3)nc2n2ccnc2n1-c1c(Cl)cccc1Cl` (stereo not shown) [Example 135, 6-(2,6-dichlorophenyl)-2-{[4-(piperidin-2-yl)phenyl]amino}imidazo[1,2-a]pyrimido[5,4-e]pyrimidin-5(6H)-one] the pKi was greater than 8.00.
